Assay results reported in US20240382564A1, “Methods and Compositions for Treating Muscular Dystrophy and Memory Impairment” (Allysta Pharmaceuticals, Inc., priority 2023, published 2024).
Where no end group is shown, it is not given here. [ ]: non-standard residue; d: D form. Nva = CCC[C@H](N)C(=O)O

Assays:
Type in all cases: in vivo, mouse
D2.mdx mice [1] = assay: In-vitro diaphragm force
Description: D2.mdx mice were treated with ALY688 at two different dosages; high dose (HD; 15 mg/kg body weight/day) or low dose (LD; 3 mg/kg body weight/day) dissolved in saline. A separate group of mice were treated with saline alone (VEH, vehicle). Treatment was provided via subscapular subcutaneous injections from 7 days of age to 28-30 days. […] At 28-30 days of age, mice were anaesthetized with isoflurane vaporized in medical air (21% oxygen) at a 2 L/min flow rate. Due to tissue limitations in limb muscle, certain measures were performed separately in tibialis anterior and quadriceps across several phases of breeding. […]
A silk suture was attached to the central tendons and the ribs and secured in a bath with oxygenated Ringers solution containing (in mM) 121 NaCl, 5 KCl, 1.8 CaCl2, 0.5 MgCl2, 0.4 NaHPO4, 24 NaHCO3, 5.5 glucose and 0.1 EDTA; pH 7.3 (95% O2/5% CO2) maintained at 25° C. with ribs secured to the force transducer with an s-hook and central tendon to the lever arm. […] After the force-frequency protocol was assessed, a 5 minute rest period was provided before a fatiguing protocol was performed (70 Hz for 350 ms every 2 seconds for 5 minutes). Recovery from fatigue was assessed at 5-, 10- and 15-minutes post fatigue at the frequency that elicited maximum force in the force-frequency protocol. […]

D2.mdx mice [2] = assay: Mitochondrial H2O2 emission in permeabilized muscle fibre bundles
Description: D2.mdx mice were treated with ALY688 at two different dosages; high dose (HD; 15 mg/kg body weight/day) or low dose (LD; 3 mg/kg body weight/day) dissolved in saline. A separate group of mice were treated with saline alone (VEH, vehicle). Treatment was provided via subscapular subcutaneous injections from 7 days of age to 28-30 days. […] At 28-30 days of age, mice were anaesthetized with isoflurane vaporized in medical air (21% oxygen) at a 2 L/min flow rate. Due to tissue limitations in limb muscle, certain measures were performed separately in tibialis anterior and quadriceps across several phases of breeding. Following the treatment protocol, in situ quadriceps force assessments were then performed in one limb followed by removal of the quadriceps from the other limb for mitochondrial assessments, diaphragm for in vitro force assessments and finally other tissues for further processing as described below. Muscle and visceral organs weights were normalized to tibia length. Tissue collected from the first phase were utilized in force, histological, mitochondrial measures (respiration, mH2O2 and calcium retention capacity) and western analyses (diaphragm and quadriceps only). A second phase was then collected and utilized for cytokine profiling, qPCR analyses and additional westerns (TA only). Serum was collected from both phase 1 and 2 and utilized for serum CK analysis. All animals were utilized in in vivo functional assays (grip strength, cage hang time and voluntary wheel running).
The quadriceps from the non-stimulated limb and the diaphragm were collected and quickly placed in a buffer containing (in mM) 50 MES Hydrate, 7.23 K2EGTA, 2.77 CaK2EGTA, 20 imidazole, 0.5 dithiothreitol, 20 taurine, 5.77 ATP, 15 PCr, and 6.56 MgCl2·6H2O (pH 7.1). Both muscles were trimmed of connective tissue and fat and separated along the longitudinal axis into small bundles weighing approximately 1.0-2.5 mg wet weight for respiration and mH2O2 and 0.5-1.5 mg wet weight for calcium retention capacity. Bundles were permeabilized with […] saponin (Sigma Aldrich; St. Louis, MI, USA) in BIOPS on a platform rotor for 30 minutes at 4° C. The permeabilized bundles were then transferred to wash buffers to remove saponin as follows: MiRO5 for mitochondrial respiration, Buffer Z for mitochondrial H2O2 emission (mH2O2), and Buffer Y for calcium retention capacity. The composition of each buffer has been described previously. Fibres prepared for pyruvate-supported mitochondrial H2O2 emission (mH2O2) were permeabilized in the presence of 35 μM 2,4-dinitrochlorobenzene (CDNB) to deplete glutathione and enhance the detection of mH2O2. All bioenergetic assays were performed within 4 hours of washing to maintain fibre viability.
Briefly, mH2O2 was determined spectrofluorometrically (QuantaMaster 40, HORIBA Scientific, Irvine, CA, USA) utilizing Buffer Z containing 10 μM Amplex Ultra Red (Life Technologies; Carlsbad, CA, USA), 1 U/mL horseradish peroxidase, 1 mM EGTA, 40 U/mL Cu/Zn SOD1, 5 μM blebbistatin and 20 mM Cr. […] The ability of ADP to suppress mH2O2 was assessed with a titration of physiological concentrations (25, 100) and saturating for oxidant generation (500 μM). […] The rate of mH2O2 emission was calculated using a standard curve under the same assay conditions and then normalized to fibre bundle dry weight.

D2.mdx mice [3] = assay: Cardiac (RV, LV) mitochondrial H2O2 emission and ADP-stimulated respiration
Description: (§1) D2.mdx mice were treated daily subcutaneously beginning at 7 days of age for 3 weeks at 1 μL/g with ALY688 at 15 mg/kg body weight (high dose drug; HD) or with a saline (VEH) control. Mice were compared to age-matched wildtypes (DBA/2J). […] However, ADP-stimulated respiration supported by pyruvate was increased in VEH (36%) and HD (46%) vs wildtype whereas HD had no effect vs VEH.

D2.mdx mice [4] = assay: Chamber-specific cardiac fibrosis, histopathological assessment
Description: as §1

Substance: [dN]IP[Nva]LY[dS]FA[dS]-NH2 [ALY688]
- muscle force production, change (D2.mdx mice [1]; diaphragm strips, both doses): −2.3% to −43.0
- recovery from fatigue, change (D2.mdx mice [1]; diaphragm, high dose, printed range also covers quadriceps low dose): −5.3% to −50.9
- mitochondrial responsiveness to ADP (pyruvate/malate-supported mH2O2 emission) (D2.mdx mice [2]; diaphragm, HD): completely preserved
- reduction of pyruvate/malate-supported mH2O2 emission (D2.mdx mice [2]; diaphragm, HD, across ADP concentrations): 8.7 to 70.7%
- succinate-induced mH2O2 emission (D2.mdx mice [2]; diaphragm, absence and presence of creatine, LD and HD): no effect of either drug dose
- attenuation of succinate-induced mH2O2 emission (D2.mdx mice [2]; quadriceps, both doses, absence and presence of creatine): 11.3 to 73.6%
- attenuation of pyruvate/malate-supported mH2O2 emission (D2.mdx mice [2]; quadriceps, both doses, across ADP concentrations): 45.9 to 62.3%
- ADP-stimulated respiration supported by pyruvate, HD vs VEH (D2.mdx mice [3]; LV): no effect
- ADP-stimulated respiration supported by pyruvate, increase vs wildtype (D2.mdx mice [3]; LV, HD, VEH 36%): 46%
- mH2O2 emissions supported by pyruvate (D2.mdx mice [3]; LV, between groups): not different between groups
- ADP-stimulated respiration supported by pyruvate (D2.mdx mice [3]; RV, HD, VEH −49% vs wildtype): completely rescued
- mH2O2 emission stimulated by pyruvate (D2.mdx mice [3]; RV, HD, range of [ADP], VEH +88% vs wildtype): did not change
- left atrial fibrosis (D2.mdx mice [4]; HD 15 mg/kg s.c. daily for 3 weeks from 7 days of age): completely rescued
- right ventricular (RV) fibrosis (D2.mdx mice [4]; HD 15 mg/kg s.c. daily for 3 weeks, VEH +385%): completely rescued
